# Measured values as given in patent US7912651B2, “Function homology screening” (BioSeek LLC, priority 2000, dated 2011).
# Entries after “also recorded” stand apart in the source; their conditions may differ.
# What was measured:
# HUVEC cells [1] = experiment: Optimized inflammatory assay combination: HUVEC treated with IL-1+TNF-α+IFN-γ, readout parameters by cell-based ELISA; design: species or system human; conditions: for activity (altered biomap) in the optimized assay combination: HUVEC, TNF-α (5 ng/ml)+IFN-γ (100 ng/ml)+IL-1, 24 hours
# Protocol: Primary human umbilical vein endothelial cells (HUVEC) are used. Other cells that may replace HUVEC in the screen include primary microvascular endothelial cells, aortic or arteriolar endothelial cells or endothelial cell lines such as EAhy926 or E6-E7 4-5-2G cells or human telomerase reverse transcriptase-expressing endothelial cells (Simmons, J. Immunol., 148:267, 1992; Rhim, Carcinogenesis 19:673, 1998; Yang, J. Biol. Chem. 274:26141, 1999). 2×10^4 cells/ml are cultured to confluence in EGM-2 (Clonetics). Other media that may replace EGM-2 include EGM (Clonetics) and Ham's F12K medium supplemented with 0.1 mg/ml heparin and 0.03-0.05 mg/ml endothelial cell growth supplement (ECGS) and 10% FBS, or medium M199 (Life Technologies, Inc.) containing 20% fetal bovine serum and 2 ng/ml basic fibroblast growth factor (Jaffe, J. Clin. Invest. 52:2745, 1973; Hoshi, PNAS 81:6413, 1984). The disease environment present in chronic inflammatory diseases, such as Crohn's disease, differs from the normal condition by increased presence of multiple biologically active agents including IL-1, TNF-α, and IFN-γ (Woywodt, 1994; Kakazu, 1999). Other biologically active agents that may be increased in chronic inflammatory disease environments include IL-4, IL-6, IL-8, IL-12, IL-13, IL-18, TGFbeta, and histamine, as well as activated leukocytes and their products (Daig, 1996, Gut 38:216; Woywodt, 1994, Eur. cytokine Netw. 5:387; Kakazu, 1999 Am J. Gastroenterol. 94:2149; Pizarro, 1999, J. Immunol. 162:6829; Monteleone, 1999, J. Immunol. 163:143; […] Enteral Nutr 23:S20; Beck, 1999, […]. Bowel Dis. 5:44). Optimized assay combinations will contain at least two, and preferably three, four or more of these biologically active agents. Concentrations of agents are standard according to the literature, typically at physiologic concentrations. Concentrations may also be determined experimentally as the amount required to saturate the relevant receptor. A useful feature of the present invention is that combinatorial effects of multiple factors are observed over wide ranges of factor concentrations. Based on the factors included in an assay combination, a set of parameters for including in a biomap are selected. The experiments provided in FIG. 1A-1C illustrate the usefulness of the present invention in compound screening applications. […] After 24 hours, cultures are washed and evaluated for the presence of the parameters ICAM-1 (1), VCAM-1 (2), E-selectin (3), IL-8 (4), CD31 (5), HLA-DR (6) and MIG (7) by cell-based ELISA as described (Melrose, J. Immunol. 161:2457, 1998). For this, plates are blocked with 1% Blotto for 1 hr, and treated with primary antibodies (obtained from Pharmingen and Becton Dickinson) at 1 ng/ml for 2 hr. After washing, secondary peroxidase-conjugated anti-mouse IgG antibody (Promega) at 1:2500 is applied for 45 min. After washing, TMB substrate (Kierkegaard & Perry) is added and color developed. Development is stopped by addition of H2SO4 and the absorbance at 450 nm (subtracting the background absorbance at 600 nm) is read with a Molecular Dynamics plate reader. The relative expression levels of each parameter are indicated by the OD at 450 nm shown along the y-axis. The mean+/-SD from triplicate samples is shown. The assay combinations shown in FIG. 1 are useful in screening compounds that modulate TNF-α, IL-1 and IFN-γ signaling pathways, however, compounds must be evaluated separately in all three assay combinations to identify compounds that selectively modulate one or more of these pathways. In addition, compounds that selectively modulate combinatorial effects of these pathways cannot be distinguished. […] Confluent cultures of HUVEC cells are treated with TNF-α (5 ng/ml)+IFN-γ (100 ng/ml)+IL-1 (1 ng/ml) in the presence or absence of neutralizing anti-TNF-α or control antibody (Goat anti-IgG). […] In FIG. 3A, the relative expression of each parameter is shown along the y-axis as average value of the OD measured at 450 nm of triplicate samples. […]
# TNF-R1 (p55) = TNF-R1 (p55) morpholino antisense in HUVEC, flow cytometry; assay type: cell-based, human; conditions: 4 hours
# From the text: Morpholino phosphorodiamidate (MF) antisense oligonucleotides are used. Other chemical classes of antisense oligonucleotides that can be substituted for morpholinos include but are not limited to phosphorotioate oligonucleotides, N3′-P5′ phosphoramidate oligonucleotides (NP), locked nucleic acid (LNA), 2′-O-methoxyethyl nucleic acid (MOE), 2′-fluoro-arabinonucleic acid (FANA), peptide nucleic acids (PNA) (reviewed in Toulme, Nature Biotech. 19:17, 2001). In the example in FIG. 18, antisense oligonucleotides for TNF-R1 (p55) (5′-[…]-3′)(SEQ ID NO:1), and the beta-globin control oligo (5′-[…]-3′)(SEQ ID NO:2) (Gene Tools Inc.) are used. The transfection mixture is prepared by mixing […] of stock morpholino (0.5 mM), […], and 4 ml of 200 mM EPEI (Ethoxylated PolyEthylenimine), vortexed, incubated at room temperature for 20 minutes, and then mixed with 3.5 ml of serum-free media to give a final 0.6 μM morpholino concentration. HUVEC cells are plated the day before in 24-well plates at 4-6×10e4 cells/well. Cells are washed once with serum-free media and incubated with 0.4 ml of the morpholino transfection mixture at 37° C. for 3 hours. Morpholino is removed, regular media (Epithelial Growth Media with 2% fetal calf serum, Clonetics) is added and cells allowed to recover overnight. The efficiency of loading of cells with morphino is monitored in cells incubated with a fluorescent morpholino, and is typically essentially 100 percent. HUVEC cells are then treated with either TNF-α (0.5 ng/ml), or IL-1 (1 ng/ml), or media only. After 4 hours, cells are harvested and evaluated for the cell surface expression of ICAM-1 (1), VCAM-1 (2), E-selectin (3), and CD31 (4) by flow cytometry. […] The TNF-R1 antisense specifically blocks induction of ICAM-1 and VCAM-1 by TNF-α, while it has no effect on induction of the same markers by the independent cell surface receptor for IL-1.
# HUVEC cells [2] = experiment: Lactate dehydrogenase (LDH) in HUVEC culture supernatants, CytoTox96 assay; assay type: cell-based, human; conditions: endothelial cell cultures
# Protocol: Effect of over-expression of bcl-2 and bcl-xl proteins on a panel of assay combinations. HUVEC cells were transduced with either Bcl-2, Bcl-xL or control empty vector (control). Confluent cultures were treated with either ceramide (10 μm), TNF-α (5 ng/ml), ceramide (10 μm)+TNF-α (5 ng/ml), or media only. After 24 hours, cells were washed and evaluated for the surface expression of ICAM-1 (1), VCAM-1 (2), and MIG (3) by cell-based ELISA performed as described in FIG. 1. Cell supernatants were collected and analyzed for the presence of lactate dehydrogenase LDH (4) by CytoTox96 assay (Promega).
# A panel of assay combinations that reproduces aspects of the response of the endothelial cells to inflammatory processes and stimuli enhancing apoptosis is used. […] Endothelial cells cultured under basal conditions display a low level of cell damage as measured by release of cytoplasmic lactate dehydrogenase from cells into the supernatant.
# HUVEC cells [3] = experiment: HUVEC assay combinations with single pathway activators (TNF-α, IL-1, IFN-γ or activating antibody to p55), biomaps by cell-based ELISA; design: species or system human
# Protocol: Confluent cultures of HUVEC cells are treated with TNF-α (5 ng/ml), IFN-γ (100 ng/ml), IL-1 (20 ng/ml), the combination of TNF-α+IFN-γ+IL-1, or media in the presence or absence of Act-anti-p55. After 24 hours, cultures are washed and evaluated for the cell surface expression of ICAM-1 (1), VCAM-1 (2), E-selectin (3), IL-8 (4), and MIG (5) by cell-based ELISA performed as described in FIG. 1. A color-coded representation of the resulting biomaps prepared from the data is shown in FIG. 8, coded as described in FIG. 2B. […]
# HUVEC cells [4] = experiment: HUVEC in basal medium cultured with factor or agent for 24 hours, cell-based ELISA; design: species or system human; conditions: HUVEC cultured with the factor/agent for 24 hours, vs basal medium
# Protocol: After 24 hours, cultures are washed and evaluated for the presence of the parameters ICAM-1 (1), VCAM-1 (2), E-selectin (3), IL-8 (4), CD31 (5), HLA-DR (6) and MIG (7) by cell-based ELISA as described (Melrose, J. Immunol. 161:2457, 1998). For this, plates are blocked with 1% Blotto for 1 hr, and treated with primary antibodies (obtained from Pharmingen and Becton Dickinson) at 1 ng/ml for 2 hr. After washing, secondary peroxidase-conjugated anti-mouse IgG antibody (Promega) at 1:2500 is applied for 45 min. After washing, TMB substrate (Kierkegaard & Perry) is added and color developed. Development is stopped by addition of H2SO4 and the absorbance at 450 nm (subtracting the background absorbance at 600 nm) is read with a Molecular Dynamics plate reader. The relative expression levels of each parameter are indicated by the OD at 450 nm shown along the y-axis. The mean+/−SD from triplicate samples is shown.
# After 24 hours, cultures are washed and evaluated for the presence of the parameters ICAM-1 (1), VCAM-1 (2), E-selectin (3), IL-8 (4), CD31 (5), HLA-DR (6) and MIG (7) by cell-based ELISA performed as described in FIG. 1 and are reported as the OD at 450 nm in FIG. 2. The mean+/−SD from triplicate samples are shown. * indicates p<0.05 comparing results obtained with the two separate conditions.
# After 24 hours, cultures are washed and evaluated for the presence of the parameters ICAM-1 (1), VCAM-1 (2), E-selectin (3), IL-8 (4), CD31 (5), HLA-DR (6) and MIG (7) by cell-based ELISA performed as described in FIG. 1 and are reported as the OD at 450 nm. The mean+/−SD from triplicate samples are shown. * indicates p<0.05 comparing results obtained with the two separate conditions.
molecule,measurement,setting,value
"S=C(S)N1CCCC1 [PDTC, pyrrolidine dithiocarbamate]",activity (altered biomap) in the optimized assay combination,HUVEC cells [1],altered biomaps
5′-AGGTCAGGCACGGTGGAGAGGC-3′ (all phosphorodiamidate morpholino (PMO)) [TNF-R1 antisense],biomap versus control oligo upon treatment with TNF-α,"TNF-R1 (p55); 0.6 μM morpholino, TNF-α (0.5 ng/ml)",altered biomap
same,induction of ICAM-1 by IL-1,TNF-R1 (p55); IL-1 (1 ng/ml),no effect
same,induction of VCAM-1 by IL-1,TNF-R1 (p55); IL-1 (1 ng/ml),no effect
same,induction of ICAM-1 by TNF-α,TNF-R1 (p55); TNF-α (0.5 ng/ml),blocks
same,induction of VCAM-1 by TNF-α,TNF-R1 (p55); TNF-α (0.5 ng/ml),blocks
COc1cccc(-c2cc(=O)c3ccccc3o2)c1N [PD098059],activity (altered biomap) in the optimized assay combination,HUVEC cells [1],altered biomaps
"CC(Cc1ccc(O)c(O)c1)C(C)Cc1ccc(O)c(O)c1 (stereo not shown) [NHGA, nordihydroguaiaretic acid]",activity (altered biomap) in the optimized assay combination,HUVEC cells [1],altered biomaps
O=C(NC1=CC(=O)c2ccccc2C1=O)c1ccccc1 [PPM-18],cellular toxicity at higher concentrations (2-fold) when tested alone,HUVEC cells [1]; 2-fold above PPM-18 2 μM / AG126 25 μM,cellular toxicity
same,activity (altered biomap) in the optimized assay combination,HUVEC cells [1],active compounds
ceramide,release of cytoplasmic lactate dehydrogenase into the supernatant (cell damage) vs basal conditions,HUVEC cells [2],enhanced
N#CC(C#N)=Cc1ccc([N+](=O)[O-])c(O)c1 [AG126],activity (altered biomap) in the optimized assay combination,HUVEC cells [1],active compounds
"p55-Fc: recombinant fusion protein containing the extracellular domains of the p55 TNF-α-receptor fused to immunoglobulin Fc domain (protein, left off: a dimerising Fc or GST, recombinant fusion protein containing the extracellular domains of the p55 TNF-α-receptor fused to immunoglobulin Fc domain) LVPHLGDREKRDSVCPQGKYIHPQNNSICCTKCHKGTYLYNDCPGPGQDTDCRECESGSFTASENHLRHCLSCSKCRKEMGQVEISSCTVDRDTVCGCRKNQYRHYWSENLFQCFNCSLCLNGTVHLSCQEKQNTVCTCHAGFFLRENECVSCSNCKKSLECTKLCLPQIENVKGTEDSGTT",biomap of cultures containing activating antibody to TNF-α-receptor p55: sensitivity to the agent,"HUVEC cells [3]; Act-anti-p55, 24 hours",is sensitive; also recorded: alters
same,biomap of the assay combination containing IL-1 alone: sensitivity to the agent,"HUVEC cells [3]; IL-1, 24 hours",not sensitive
same,biomap of the assay combination containing TNF-α alone: sensitivity to the agent,"HUVEC cells [3]; TNF-α (5 ng/ml), 24 hours",altered; also recorded: is sensitive
same,activity (altered biomap) in the optimized assay combination,HUVEC cells [1],active compound
IFN-γ: cytokine used as factor (protein) QDPYVKEAENLKKYFNAGHSDVADNGTLFLGILKNWKEESDRKIMQSQIVSFYFKLFKNFKDDQSIQKSVETIKEDMNVKFFNSNKKKRDDFEKLTNYSVTDLNVQRKAIHELIQVMAELSPAAKTGKRKRSQMLFRGRRASQ,level of HLA-DR,HUVEC cells [4],increased
same,level of ICAM-1,HUVEC cells [4],increased
same,level of MIG,HUVEC cells [4],increased
